Assay results as given in the supplement of paper PMC10307832.

How the values were obtained:
Assay in all cases: relative viability (nuclei count vs DMSO), 5 days (fraction); higher = more cells survive
NCI-H1650 = system: NCI-H1650
How it was run: (§1)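 Lung cancer cell lines were pin-tool dosed in 1536-well plates on the day after seeding, with either a lone drug or a fixed anchor-drug dose plus five library-drug doses (not always all listed) in √10 steps. Nuclei were counted on 4× images after 5 days. Relative viability is the ratio of treated-well to vehicle-well nuclei counts, with each value a median of duplicate plates.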

NCI-H1666 = system: NCI-H1666
How it was run: as §1

NCI-H1792 = system: NCI-H1792
How it was run: as §1

NCI-H1975 = system: NCI-H1975
How it was run: as §1

NCI-H2342 = system: NCI-H2342
How it was run: as §1

NCI-H23 = system: NCI-H23
How it was run: as §1

NCI-H358 = system: NCI-H358
How it was run: as §1

NCI-H441 = system: NCI-H441
How it was run: as §1

NCI-H650 = system: NCI-H650
How it was run: as §1

NCI-H838 = system: NCI-H838
How it was run: as §1

SK-MES-1 = system: SK-MES-1
How it was run: as §1

SW 900 = system: SW 900
How it was run: as §1

`O=c1cc(N2CCOCC2)oc2c(-c3cccc4c3sc3ccccc34)cccc12` + CC(=O)c1c(C)c2cnc(Nc3ccc(N4CCNCC4)cn3)nc2n(C2CCCC2)c1=O [Palbociclib] (partner 0.5 µM) showed a relative viability (NCI-H1650; first compound 0.3162 µM) of 0.368, a relative viability (NCI-H1650; first compound 1 µM) of 0.317 and a relative viability (NCI-H1666; first compound 0.01 µM) of 0.663. For the same molecule, the relative viability (NCI-H1666; first compound 0.03162 µM) was 0.593, the relative viability (NCI-H1666; first compound 0.1 µM) was 0.709 and the relative viability (NCI-H1666; first compound 0.3162 µM) was 0.651. For the same molecule, the relative viability (NCI-H1666; first compound 1 µM) was 0.643, the relative viability (NCI-H1792; first compound 0.01 µM) was 0.641 and the relative viability (NCI-H1792; first compound 0.03162 µM) was 0.577. For the same molecule, the relative viability (NCI-H1792; first compound 0.1 µM) was 0.658, the relative viability (NCI-H1792; first compound 0.3162 µM) was 0.668 and the relative viability (NCI-H1792; first compound 1 µM) was 0.683. The relative viability (NCI-H1975; first compound 0.01 µM) was 0.61, the relative viability (NCI-H1975; first compound 0.03162 µM) was 0.609 and the relative viability (NCI-H1975; first compound 0.1 µM) was 0.626. The relative viability (NCI-H1975; first compound 0.3162 µM) was 0.529, the relative viability (NCI-H1975; first compound 1 µM) was 0.591 and the relative viability (NCI-H2342; first compound 0.01 µM) was 0.539. For the same molecule, the relative viability (NCI-H2342; first compound 0.03162 µM) was 0.502, the relative viability (NCI-H2342; first compound 0.1 µM) was 0.537 and the relative viability (NCI-H2342; first compound 0.3162 µM) was 0.529. For the same molecule, the relative viability (NCI-H2342; first compound 1 µM) was 0.508, the relative viability (NCI-H23; first compound 0.01 µM) was 0.464 and the relative viability (NCI-H23; first compound 0.03162 µM) was 0.524. For the same molecule, the relative viability (NCI-H23; first compound 0.3162 µM) was 0.485, the relative viability (NCI-H23; first compound 1 µM) was 0.473 and the relative viability (NCI-H358; first compound 0.01 µM) was 0.163. It also gave a relative viability (NCI-H358; first compound 0.03162 µM) of 0.127, a relative viability (NCI-H358; first compound 0.1 µM) of 0.132 and a relative viability (NCI-H358; first compound 0.3162 µM) of 0.133. For the same molecule, the relative viability (NCI-H358; first compound 1 µM) was 0.126, the relative viability (NCI-H441; first compound 0.01 µM) was 0.21 and the relative viability (NCI-H441; first compound 0.03162 µM) was 0.217. For the same molecule, the relative viability (NCI-H441; first compound 0.1 µM) was 0.207, the relative viability (NCI-H441; first compound 0.3162 µM) was 0.233 and the relative viability (NCI-H441; first compound 1 µM) was 0.222. For the same molecule, the relative viability (NCI-H650; first compound 0.01 µM) was 0.348, the relative viability (NCI-H650; first compound 0.03162 µM) was 0.383 and the relative viability (NCI-H650; first compound 0.3162 µM) was 0.356. For the same molecule, the relative viability (NCI-H650; first compound 1 µM) was 0.347, the relative viability (NCI-H838; first compound 0.01 µM) was 0.26 and the relative viability (NCI-H838; first compound 0.03162 µM) was 0.182. For the same molecule, the relative viability (NCI-H838; first compound 0.1 µM) was 0.222, the relative viability (NCI-H838; first compound 0.3162 µM) was 0.228 and the relative viability (NCI-H838; first compound 1 µM) was 0.202. The relative viability (SK-MES-1; first compound 0.01 µM) was 0.274, the relative viability (SK-MES-1; first compound 0.03162 µM) was 0.343 and the relative viability (SK-MES-1; first compound 0.1 µM) was 0.359. It also gave a relative viability (SK-MES-1; first compound 0.3162 µM) of 0.341, a relative viability (SK-MES-1; first compound 1 µM) of 0.295 and a relative viability (SW 900; first compound 0.03162 µM) of 0.473. The relative viability (SW 900; first compound 0.1 µM) was 0.567, the relative viability (SW 900; first compound 0.3162 µM) was 0.507 and the relative viability (SW 900; first compound 1 µM) was 0.517.
